Test results from patent publication US11737985B2 (priority 2013, dated 2023).
Where two headings read alike, the source gives them in different places.

What was measured:
hNKCC1b = molecular target: T1, hNKCC1b (Homo sapiens, UniProt P55011); settings: cited from earlier work
T1 sequence (P55011 1-1196 isoform P55011-3): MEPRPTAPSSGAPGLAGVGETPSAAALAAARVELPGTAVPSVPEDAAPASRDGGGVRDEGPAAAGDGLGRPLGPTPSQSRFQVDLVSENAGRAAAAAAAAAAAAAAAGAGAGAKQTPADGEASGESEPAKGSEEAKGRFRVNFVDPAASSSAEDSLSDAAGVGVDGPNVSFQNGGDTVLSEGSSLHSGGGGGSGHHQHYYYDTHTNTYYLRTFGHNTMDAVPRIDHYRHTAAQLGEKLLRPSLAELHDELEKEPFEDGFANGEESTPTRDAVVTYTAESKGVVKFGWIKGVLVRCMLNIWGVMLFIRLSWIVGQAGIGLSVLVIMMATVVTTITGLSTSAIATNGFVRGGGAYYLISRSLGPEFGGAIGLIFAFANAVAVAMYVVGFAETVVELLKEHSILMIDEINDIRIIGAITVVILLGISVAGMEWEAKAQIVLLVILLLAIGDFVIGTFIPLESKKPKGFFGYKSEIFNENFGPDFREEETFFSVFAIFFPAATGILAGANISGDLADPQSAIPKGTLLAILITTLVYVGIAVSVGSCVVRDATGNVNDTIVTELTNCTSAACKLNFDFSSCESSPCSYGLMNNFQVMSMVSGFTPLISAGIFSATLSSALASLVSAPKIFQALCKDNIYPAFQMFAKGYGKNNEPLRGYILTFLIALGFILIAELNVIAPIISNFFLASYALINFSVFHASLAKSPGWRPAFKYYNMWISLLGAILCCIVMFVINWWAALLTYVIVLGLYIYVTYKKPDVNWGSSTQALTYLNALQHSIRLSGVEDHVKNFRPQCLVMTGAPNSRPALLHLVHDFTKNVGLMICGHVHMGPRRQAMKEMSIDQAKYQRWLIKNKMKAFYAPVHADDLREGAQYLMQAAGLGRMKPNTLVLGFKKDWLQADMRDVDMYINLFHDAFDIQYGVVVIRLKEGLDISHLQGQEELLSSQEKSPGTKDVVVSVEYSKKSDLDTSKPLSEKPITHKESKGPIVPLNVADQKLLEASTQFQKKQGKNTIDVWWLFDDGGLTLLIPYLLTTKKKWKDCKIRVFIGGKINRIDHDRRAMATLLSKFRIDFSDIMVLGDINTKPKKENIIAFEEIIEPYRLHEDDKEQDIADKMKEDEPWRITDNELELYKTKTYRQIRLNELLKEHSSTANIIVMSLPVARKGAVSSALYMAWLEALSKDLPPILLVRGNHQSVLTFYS

NKCC2 = molecular target: T2, NKCC2 (Homo sapiens, UniProt Q13621); settings: cited from earlier work
T2 sequence (Q13621 1-1099): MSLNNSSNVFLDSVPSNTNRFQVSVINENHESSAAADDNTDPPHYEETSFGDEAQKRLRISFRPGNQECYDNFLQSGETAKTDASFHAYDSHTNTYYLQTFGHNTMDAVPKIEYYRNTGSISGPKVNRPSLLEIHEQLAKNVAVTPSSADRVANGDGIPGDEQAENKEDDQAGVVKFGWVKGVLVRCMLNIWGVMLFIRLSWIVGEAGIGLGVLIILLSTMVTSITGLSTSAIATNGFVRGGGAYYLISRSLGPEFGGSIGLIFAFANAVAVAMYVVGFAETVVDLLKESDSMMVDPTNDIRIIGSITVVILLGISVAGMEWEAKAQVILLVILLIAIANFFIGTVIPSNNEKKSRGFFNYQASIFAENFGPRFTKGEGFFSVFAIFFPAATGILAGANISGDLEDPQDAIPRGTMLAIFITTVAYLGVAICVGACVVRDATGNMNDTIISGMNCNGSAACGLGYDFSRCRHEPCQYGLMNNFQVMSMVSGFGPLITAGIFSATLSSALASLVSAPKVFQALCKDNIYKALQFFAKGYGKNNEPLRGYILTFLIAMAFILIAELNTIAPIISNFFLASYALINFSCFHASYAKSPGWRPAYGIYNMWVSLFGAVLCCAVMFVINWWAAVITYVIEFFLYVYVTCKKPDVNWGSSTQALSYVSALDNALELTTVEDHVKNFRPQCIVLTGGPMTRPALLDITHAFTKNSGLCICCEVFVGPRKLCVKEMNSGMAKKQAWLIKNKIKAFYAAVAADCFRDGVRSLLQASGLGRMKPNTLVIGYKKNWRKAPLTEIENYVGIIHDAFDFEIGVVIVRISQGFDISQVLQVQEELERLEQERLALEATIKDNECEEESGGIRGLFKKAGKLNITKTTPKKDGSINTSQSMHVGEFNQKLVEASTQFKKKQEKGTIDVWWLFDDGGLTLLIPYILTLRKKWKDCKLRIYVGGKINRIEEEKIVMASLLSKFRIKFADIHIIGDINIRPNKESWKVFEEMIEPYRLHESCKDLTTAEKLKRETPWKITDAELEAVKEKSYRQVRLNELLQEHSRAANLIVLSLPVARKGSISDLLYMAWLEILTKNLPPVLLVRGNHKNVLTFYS

hNKCC1a = molecular target: T3, hNKCC1a (Homo sapiens, UniProt P55011); settings: cited from earlier work
T3 sequence (P55011 1-1212): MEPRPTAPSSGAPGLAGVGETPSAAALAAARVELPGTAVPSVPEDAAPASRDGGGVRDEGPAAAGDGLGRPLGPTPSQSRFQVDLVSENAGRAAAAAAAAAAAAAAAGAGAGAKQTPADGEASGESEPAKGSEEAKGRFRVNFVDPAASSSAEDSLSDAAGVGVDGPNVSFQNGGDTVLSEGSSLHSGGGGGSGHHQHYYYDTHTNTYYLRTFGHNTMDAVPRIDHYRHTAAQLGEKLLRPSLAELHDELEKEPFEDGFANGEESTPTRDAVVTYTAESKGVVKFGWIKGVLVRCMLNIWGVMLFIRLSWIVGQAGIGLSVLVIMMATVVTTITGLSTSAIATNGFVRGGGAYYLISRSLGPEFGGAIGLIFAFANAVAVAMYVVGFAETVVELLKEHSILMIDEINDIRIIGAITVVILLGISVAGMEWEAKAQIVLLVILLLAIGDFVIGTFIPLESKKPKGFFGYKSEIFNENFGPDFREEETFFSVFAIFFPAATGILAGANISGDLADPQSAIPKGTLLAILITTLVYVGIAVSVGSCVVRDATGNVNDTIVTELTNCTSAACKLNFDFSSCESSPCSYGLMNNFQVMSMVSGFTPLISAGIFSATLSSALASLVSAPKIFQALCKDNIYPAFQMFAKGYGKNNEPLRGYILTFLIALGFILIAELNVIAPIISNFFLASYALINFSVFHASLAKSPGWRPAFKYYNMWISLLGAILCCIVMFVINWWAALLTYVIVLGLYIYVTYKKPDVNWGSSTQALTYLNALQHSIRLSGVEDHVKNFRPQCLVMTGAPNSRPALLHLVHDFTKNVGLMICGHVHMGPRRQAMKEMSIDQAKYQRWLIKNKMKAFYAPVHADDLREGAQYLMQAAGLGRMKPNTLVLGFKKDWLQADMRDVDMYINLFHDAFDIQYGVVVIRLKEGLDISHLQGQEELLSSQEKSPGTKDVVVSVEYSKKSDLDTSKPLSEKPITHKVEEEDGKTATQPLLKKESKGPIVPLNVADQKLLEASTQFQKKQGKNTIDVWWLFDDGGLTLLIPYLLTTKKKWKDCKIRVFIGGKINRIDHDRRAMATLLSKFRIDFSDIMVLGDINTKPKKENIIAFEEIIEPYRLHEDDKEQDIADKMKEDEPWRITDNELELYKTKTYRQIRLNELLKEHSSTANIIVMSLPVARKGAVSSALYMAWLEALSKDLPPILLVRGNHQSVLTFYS

[1] = Cross-over trial dapagliflozin / bumetanide: weekly urinary excretion (Table 9); assay type: in vivo, healthy volunteers; settings: for Ca^++ / Glucose / K^+ / Mg^++ / Na^+ / Urate: urine, Day 1-7
[2] = in vivo; cited from earlier work
[3] = in vivo; cited from earlier work; remark: listed apart in the source
[4] = during the remainder of the day after the dose, high salt intake; cited from earlier work
[5] = in vivo; cited from earlier work; remark: listed apart in the source
[6] = 1 mg; cited from earlier work
[7] = with spironolactone treatment, 12 patients, p<0.05, cited from earlier work
[8] = Americas group, at four months; cited from earlier work
[9] = cited from earlier work

## NS(=O)(=O)c1cc(-c2nnn[nH]2)c(NCc2cccs2)cc1Cl [Azosemide]
hNKCC1b
  IC50: 210 nM
NKCC2
  IC50: 3100 nM
hNKCC1a
  IC50: 250 nM

## CCCCNc1cc(C(=O)O)cc(S(N)(=O)=O)c1Oc1ccccc1 [Bumetanide]
[1]; given after one week of dapaglifozin therapy
  greater natriuresis with bumetanide: 36%
[1]
  Ca^++: 667 ± 54 mg-wk^−1
  Glucose: 0.3 ± 0.06 g-wk^−1
  K^+: 454 ± 32 mmol-wk^−1
  Mg^++: 613 ± 48 mg-wk^−1
  Na^+: 669 ± 46 mmol-wk^−1
  Urate: 2249 ± 160 mg-wk^−1
hNKCC1b
  IC50: 840 nM
NKCC2
  IC50: 250 nM
hNKCC1a
  IC50: 950 nM

## Cc1ccc([C@@H]2O[C@H](CO)[C@@H](O)[C@H](O)[C@H]2O)cc1Cc1ccc(-c2ccc(F)cc2)s1 [Canagliflozin]
[2]
  Bioavailability: 65%
  T1/2: 10 h
  Tmax: 1 to 2 h

## CCOc1ccc(Cc2cc([C@@H]3O[C@H](CO)[C@@H](O)[C@H](O)[C@H]3O)ccc2Cl)cc1 [Dapagliflozin]
[1]; given after one week of bumetanide therapy
  greater natriuresis with dapagliflozin: 190%
[1]
  Ca^++: 597 ± 76 mg-wk^−1
  Glucose: 239 ± 20 g-wk^−1
  K^+: 415 ± 24 mmol-wk^−1
  Mg^++: 548 ± 37 mg-wk^−1
  Na^+: 625 ± 15 mmol-wk^−1
  Urate: 3382 ± 187 mg-wk^−1
[2]
  T1/2: 13 h
  Tmax: 1 to 1.5 h

## OC[C@H]1O[C@@H](c2ccc(Cl)c(Cc3ccc(O[C@H]4CCOC4)cc3)c2)[C@H](O)[C@@H](O)[C@@H]1O [Empagliflozin]
[2]
  Bioavailability: 95%
  T1/2: 13 h
  Tmax: 1.5 h

## COC(=O)[C@@H]1CC2=CC(=O)CC[C@]2(C)[C@@]23O[C@@H]2C[C@@]2(C)[C@@H](CC[C@@]24CCC(=O)O4)[C@H]13 [Eplerenone]
[3]
  half-life: 4 to 6 h

## CCOc1ccc(Cc2cc([C@]34OC[C@](CO)(O3)[C@@H](O)[C@H](O)[C@H]4O)ccc2Cl)cc1 [Ertugliflozin]
[2]
  Bioavailability: 87%
  T1/2: 12.5 h
  Tmax: 2 to 3 h

## C=C(CC)C(=O)c1ccc(OCC(=O)O)c(Cl)c1Cl [Ethacrynic acid]
NKCC2
  IC50: 5100 nM

## NS(=O)(=O)c1cc(C(=O)O)c(NCc2ccco2)cc1Cl [Furosemide]
[4]
  reduction of GFR: circa 23%
NKCC2
  IC50: 5100 nM

## OC[C@H]1O[C@@H](c2ccc(F)c(Cc3cc4ccccc4s3)c2)[C@H](O)[C@@H](O)[C@@H]1O [Ipragliflozin]
[2]
  Bioavailability: 92%
  T1/2: 15 h

## O=C1CC[C@@]2(O)[C@H]3Cc4ccc(O)c5c4[C@@]2(CCN3CC2CC2)[C@H]1O5 [Naltrexone, 17-(cyclopropylmethyl)-4,5-epoxy-3,14-dihydroxymorphinan-6-one]
[5]
  fraction metabolized: > 98%

## COc1cc2nc(N3CCN(C(=O)c4ccco4)CC3)nc(N)c2cc1OC [Prazosin]
[6]
  Oral bioavailability: 56.9%

## CCOc1ccc(Cc2cc([C@@H]3O[C@H](SC)[C@@H](O)[C@H](O)[C@H]3O)ccc2Cl)cc1 [Sotagliflozin]
[2]
  Bioavailability: 70%
  T1/2: 2.5 h
  Tmax: 1.9 h

## CC(=O)S[C@@H]1CC2=CC(=O)CC[C@]2(C)[C@H]2CC[C@@]3(C)[C@@H](CC[C@@]34CCC(=O)O4)[C@H]12 [Spironolactone]
[3]
  half-life: about 1.5 h
  time to steady state concentration: 7 to 10 days
[7]; vs. 13.6±10.8
  hypoxic index: 6.7±6.6 events/h
[7]; vs. 39.8±19.5
  AHI: 22.0±6.8 events/h
[8]
  patients discontinuing the study drug due to hyperkalemia: 25.2%

## CCc1ccc(Cc2ccc3c(c2)[C@]2(OC3)O[C@H](CO)[C@@H](O)[C@H](O)[C@H]2O)cc1 [Tofogliflozin]
[2]
  Bioavailability: 98%
  T1/2: 5.5 h
  Tmax: 1.1 h

## Cc1cccc(Nc2ccncc2S(=O)(=O)NC(=O)NC(C)C)c1 [Torsemide]
[9]; in vivo
  Bioavailability: 80-100%
  duration of action: 3 to 5 h
[9]; unchanged in chronic renal failure
  plasma half-life: 3 to 5 h
hNKCC1b
  IC50: 8200 nM
NKCC2
  IC50: 300 nM
hNKCC1a
  IC50: 6200 nM

## C[C@]12CCC(=O)C=C1C=C[C@@H]1[C@@H]2CC[C@@]2(C)[C@H]1CC[C@@]21CCC(=O)O1 [canrenone]
[3]
  half-life: more than 15 hours
